# In US20240165150A1, “COMBINATION FOR TREATMENT OF THROMBOINFLAMMATION” (TX MEDIC AB, priority 2021, published 2024):
# What was measured:
# Type in all cases: cell-based
# human whole blood [1] = test: Hematology analysis (cell counts) in IBMIR blood loop system; conditions: WI-38 cells 1 × 10^5/2 ml, 1 hour, IBsolvMIR 0.2 mg/ml, heparin 0, 0.2 or 0.5 U/ml
# Description: (§1) Materials and Methods Dextran sulfate (IBsolvMIR®, Tikomed AB, Viken, Sweden, WO 2016/076780), heparin (Heparin LEO®, LEO Pharma, cat. No. 585679) and WI-38 cells (American Type Culture Collection (ATCC)) were administered to blood loops as shown in Table 1. Vehicle was an aqueous 0.9% NaCl solution. Each loop contained in total 2 ml of freshly taken human whole blood from three blood donors. Reagents were added to the loops according to Table 1 and the loops were set to rotate at 37° C. Blood samples were taken at the zero, 15 min, 1 hour and 4 hour time points.
# Blood samples were extracted from loops at the zero and 1 hour time points and platelets, red blood cells and white blood cells were automatically counted using a Sysmex XN-L 350 Hematology Analyzer.
# human whole blood [2] = test: Coagulation (blood clot size) and hemolysis in IBMIR blood loop system
# Description: as §1
# Clot scale: 1=Small clot observed (<2 mm), 2=Medium-sized clot observed (2-5 mm), 3=Large clot observed (>5 mm), * Clot removed from loop (not noted at 4 h when all blood was removed from loop), n.s.=no sample. Hemolysis: +=hemolysis observed in blood loop.
# human whole blood [3] = test: Cytokine analysis by electrochemiluminescence in blood loop system
# Description: as §1
# Blood was extracted from loops at the zero and 4 hour time points and cytokines were analyzed by electrochemiluminescence (ECL) in multiplex mode using MESO QuickPlex SQ 120 (Mesoscale Discovery).
# human whole blood [4] = test: Flow cytometry analysis of blood from blood loops; conditions: 1 hour
# Description: as §1
# Fresh blood was collected and immediately mixed with ethylenediaminetetraacetic acid (EDTA) (zero time point samples) or added to loops followed by sampling and mixing with EDTA at the 1 hour time point. Data was analyzed using flow cytometry.
# human whole blood [5] = test: Complement split products C3a and C5a by ELISA in blood loop system
# Description: as §1
# Complement analysis Complement split product C3a and C5a concentrations were measured by ELISA according to the manufacturer's instructions (RayBio® Human C3a and C5a ELISA Kit for serum, plasma, and cell culture supernatants by RayBiotech) at the zero, 15 min and 1 hour time points.
# [6] = WI-38-treated loops, three donors
# [7] = agent alone, WI-38 cells, listed as Dextran sulfate
# [8] = vs corresponding WI-38 treated without IBsolvMIR
# [9] = vehicle at 0.5 U/ml heparin, donors D2 and D3, 4 hour
# [10] = heparin 0.2 or 0.5 U/ml combined with IBsolvMIR 0.2 mg/ml, WI-38 cells
substance,measurement,setting,value
Dextran sulfate [IBsolvMIR®],WBC counts (WI-38 induced decrease),human whole blood [1],completely rescued the WBC decrease
same,WBC counts (WI-38 induced decrease),human whole blood [1]; listed as dextran sulfate,capable of restoring WBC counts
same,"Clotting, loops without WI-38 cells","human whole blood [2]; IBsolvMIR alone loops, all donors, 15 min to 4 hours",No clotting was observed
same,Clotting at 15 minutes,human whole blood [2]; [6],no clotting was observed
same,Clotting at one hour,human whole blood [2]; [6],medium-sized clots were observed in two WI-38+IBsolvMIR® loops
same,IL-6 cytokine release,human whole blood [3]; 4 hour time point,ambiguous
same,MCP-1 levels,"human whole blood [3]; IBsolvMIR alone groups vs corresponding vehicle, 4 hour",higher than corresponding vehicle
same,MCP-1 levels,"human whole blood [3]; WI-38 cells with IBsolvMIR vs corresponding WI-38 alone group, 4 hour",slightly increased levels of MCP-1
same,IL-8 release,"human whole blood [3]; vehicle and WI-38 cell-induced, 4 hour",clear IBsolvMIR® dependent reduction
same,Activation of granulocytes (CD66b+),human whole blood [4]; WI-38 cells,overall decreased activation profile
same,Activation of monocytes (CD14+),human whole blood [4]; WI-38 cells,overall decreased activation profile
same,Aggregation of platelets (decrease in proportion of single platelets),human whole blood [4]; WI-38 cells,entirely revoked
same,B cell count (WI-38 dependent decrease),human whole blood [4]; WI-38 cells,entirely reversed up to vehicle level
same,Frequency of granulocytes,human whole blood [4]; WI-38 cells,increased frequency
same,Frequency of monocytes,human whole blood [4]; WI-38 cells,increased frequency
same,TF positive cell counts,human whole blood [4]; WI-38 treated groups with vs without IBsolvMIR,about ten-fold
same,C5b-9 formation on platelets (proportion of C5b-9 positive platelets),"human whole blood [4]; agent alone, WI-38 cells",partly reverted
same,Platelet binding to WI-38 cells (cell transplant),"human whole blood [4]; agent alone, WI-38 cells",partly reverted
same,Proportion of platelets bound to granulocytes,"human whole blood [4]; agent alone, WI-38 cells",capable of reducing
same,Proportion of platelets bound to monocytes,"human whole blood [4]; agent alone, WI-38 cells",capable of reducing
same,C5b-9 formation on platelets (proportion of C5b-9 positive platelets),human whole blood [4]; [7],capable of reducing
same,Platelet binding to WI-38 cells (cell transplant),human whole blood [4]; [7],capable of reducing
same,Complement activation (C5b-9) on TF positive cells,human whole blood [4]; vs WI-38 alone,lower
same,Frequency of apoptotic (annexin +) TF+ cells,human whole blood [4]; [8],lower
same,Frequency of dead (annexin + and/or viability dye +) TF+ cells,human whole blood [4]; [8],lower
same,C3a increase in WI-38 treated groups,human whole blood [5]; 15 min time point,entirely blocked
same,C5a vs corresponding treatment without IBsolvMIR,human whole blood [5]; 1 hour time point,lower in almost every donor in every group
same,C3a vs corresponding treatment without IBsolvMIR,"human whole blood [5]; no heparin, 0.2 and 0.5 U/ml heparin, with and without WI-38 cells, 15 min and 1 hour",decreased C3a
heparin [reference compound],WBC counts (WI-38 induced decrease),human whole blood [1],does not affect WBC counts
same,IL-6 response,human whole blood [3]; [9],> 100 fold
same,TNF-α release,human whole blood [3]; [9],dramatic elevated vehicle response
same,C5b-9 formation on platelets (proportion of C5b-9 positive platelets),"human whole blood [4]; agent alone, WI-38 cells",did not have any effects
same,Platelet binding to WI-38 cells (cell transplant),"human whole blood [4]; agent alone, WI-38 cells",did not have any effect at all
same,Proportion of platelets bound to granulocytes,"human whole blood [4]; agent alone, WI-38 cells",did not have any effect at all
same,Proportion of platelets bound to monocytes,"human whole blood [4]; agent alone, WI-38 cells",did not have any effect at all
same,C5b-9 formation on platelets (proportion of C5b-9 positive platelets),human whole blood [4]; [10],clear concentration-dependent effect
same,Platelet binding to WI-38 cells (cell transplant),human whole blood [4]; [10],potentiated the effects of IBsolvMIR®
same,C5b-9 formation on platelets (proportion of C5b-9 positive platelets),"human whole blood [4]; heparin 0.2 or 0.5 U/ml combined with IBsolvMIR 0.2 mg/ml, WI-38 cells, listed as Heparin",potentiated the effects of IBsolvMIR®
